Test results published in US20110131683A1, “Polypeptide Inducing Dwarfism of Plants, Polynucleotide Coding the Polypeptide, and Those Use” (GENOMINE, INC., priority 2007, published 2011).

What was measured:
Assay type in all cases: in vivo, Arabidopsis thaliana
[1] = tested on: SEN::AtGA2ox4-9 and SEN::AtGA2ox4-10 dwarfism lines; experiment: Phenotype recovery of SEN::AtGA2ox4 mutant by treatment with GA3
Method: In order to examine whether the AtGA2ox4 gene is actually involved in gibberellin catabolism, the SEN::AtGA2ox4-9 and the SEN::AtGA2ox4-10 line, both showing dwarfism phenotypes, were grown for 30 days while 10^−4 M GA3 (Sigma, USA) was applied twice at intervals of one week starting from 12 days after germination. Treatment with the active gibberellin GA3 may recover the phenotype of the dwarfism-induced mutant in which gibberellin insufficiency was caused by the overexpression of the AtGA2ox4 gene, to that of the wild-type. Comparisons were made between the mutants treated with or without GA3 (FIGS. 10, 11 and 12). […] This was true of GA3-treated mutants. These facts allow an inference that the gene of the present invention plays an important role in dwarfism induction in plants, but is not involved in the control of flowering time.

[2] = tested on: AtGA20ox1, AtGA20ox2 and AtGA3ox1 expression; experiment: RT-PCR expression of gibberellin biosynthesis-related genes in SEN::AtGA2ox4 mutant; conditions: FIG. 9
Method: Genes associated with GA 2-oxidase activity, flowering and a feedback mechanism of the gibberellin metabolism in the SEN::AtGA2ox4 mutant with a dwarfism phenotype were analyzed for expression patterns. In this regard, total RNA was isolated from flowers, roots, stems, leaves and siliques of the wild-type Arabidopsis thaliana and the SEN::AtGA2ox4 mutant, both grown for 30 days after germination, with the aid of RNasey Plant Mini Kit (QIAGEN, Germany). cDNA was synthesized from 1 μg of each RNA using Superscript III Reverse Transcriptase (INVITROGEN, USA) under the conditions of 65° C., 5 min; 50° C., 60 min; and 70° C., 15 min. Then, PCR was performed using the synthesized cDNAs as templates in the presence of the primers, specific for GA 2-oxidase and flowering genes, listed in Table 1, below. The PCR was initiated by denaturing the template DNA at 94° C. for 2 min and performed with 30 cycles of 94° C., 1 min; 55° C., 1.5 min; and 72° C., 1 min, followed by extension at 72° C. for 15 min. […]
An examination was made about whether the gene of the present invention is involved in the feedback mechanism of the gibberellin metabolism and thus in gibberellin catabolism. For this, AtGA20ox1 and AtGA20ox2, both coding for GA20-oxidase, and AtGA3ox1 coding for GA3-oxidase were analyzed for expression levels in the SEN::AtGA2ox4 mutant. […]

[3] = tested on: proteins up-regulated by AtGA2ox4 overexpression; experiment: Two-dimensional electrophoresis of proteins of SEN::AtGA2ox4 mutant; conditions: SEN::AtGA2ox4 mutant grown 30 days, 2-D electrophoresis, Table 2
Method: Proteins were isolated from the wild-type Arabidopsis thaliana (FIG. 13), the SEN::AtGA2ox4 mutant (FIG. 14), and the GA3-treated SEN::AtGA2ox4 mutant (FIG. 15), all grown for 30 days after germination, and analyzed for expression pattern by two-dimensional electrophoresis. Protein isolation for each plant was conducted as follows. Each plant was mashed in 10 volumes of a reagent comprising 7M urea, 2M thiourea, 4% (w/v) 3-[(3-cholamidopropy)dimethyammonio]-1-propanesulfonate (CHAPS), 1% (w/v) dithiothreitol (DTT), 2% (v/v) pharmalyte and 1 mM benzamidine, followed by heating at 100° C. for 10 min. After centrifugation at 15,000 rpm for 1 hour, the supernatant was used as a sample for two-dimensional electrophoresis. Protein quantities were determined using the Bradford method (Bradford et al., 1976). For primary isoelectric focusing (IEF), IPG strips were soaked at room temperature for 12-16 hrs in a reswelling solution comprising 7M urea, 2M thiourea, 2% 3-[(3-cholamidopropy)dimethylammonio]-1-propanesulfonate (CHAPS), 1% dithiothreitol (DTT) and 1% pharmalyte. Each protein sample was used in the amount of 200 μg per strip. […] The protein spots were quantified to examine a change in expression level by the analysis of the scanned images using the PDQuest software (version 7.0, BioRad). The quantity of each spot was normalized according to the total intensity of valid spots. […]

For `C=C1C[C@]23C[C@@]1(O)CC[C@H]2[C@@]12C=C[C@H](O)[C@@](C)(C(=O)O1)[C@H]2[C@@H]3C(=O)O` [GA3], the “phenotype of dwarfism-induced mutant lines after GA3 treatment” value ([1]; 10^-4 M GA3 applied twice at intervals of one week starting 12 days after germination, grown 30 days, SEN::AtGA2ox4-9 and -10 lines) was “recovered almost perfectly to the wild-type phenotype”, the “flowering time of GA3-treated mutants versus wild-type” value ([1]; GA3-treated SEN::AtGA2ox4 mutants) was “not different in flowering time from the wild-type” and the “expression levels of AtGA20ox1, AtGA20ox2 and AtGA3ox1 after GA3 treatment” value [2] was “return the expression levels to those of the wild-type”. For the same molecule, the “proteins up-regulated by AtGA2ox4 overexpression, after GA3 treatment” value [3] was “recovered to the phenotype of the wild-type”.
